≈ marks a conversion by molar mass, not a printed value.
tested on: not given; experiment: not given; conditions: not given

Compound	melting point [°C]
Cc1cccc(C)c1NC(=O)Nc1ccccc1 [1bf, 1-(2,6-Dimethylphenyl)-3-phenylurea]	240 to 241
Cc1ccccc1NC(=O)Nc1ccccc1F [1gl, 1-(2-Metylphenyl)-3-(2-fluorophenyl)urea]	224 to 225
Cc1ccc(NC(=O)Nc2ccc(Cl)c(Cl)c2)cc1 [1ae, 1-(3,4-Dichlorophenyl)-3-p-tolylurea]	225 to 226
O=C(Nc1ccccc1)Nc1ccc(F)c(F)c1 [1fj, 1-(3,4-Difluorophenyl)-3-phenylurea]	213 to 214

tested on: E. faecalis ATCC 29212; experiment: MIC by broth microdilution (CLSI); format: cell-based, Enterococcus faecalis; conditions: Enterococcus faecalis, ATCC29212; Gram-positive; 37 °C, 24 h, Mueller Hinton Broth; read-out: MIC E.f. 29212
Description: (§1) The in vitro Minimum Inhibitory Concentrations (MICs, μg/mL) were determined by the broth microdilution method according to the Clinical Laboratory Standards Institute (CLSI) guidelines. MIC values were recorded as the lowest concentration of compounds at which there was no optically detectable microorganism growth and evaluated by comparing the growth in each well visually with that of the growth in the control well for bacteria. All compounds were dissolved in dimethyl sulfoxide (DMSO) and were tested in a final concentration range of from 512 to 2 µg/mL. MICs for the reference antibiotic norfloxacin against quality control strains were used to confirm the validity of the screen. According to the CLSI guidelines, diphenylureas were tested in vitro against a panel of Gram-positive and Gram-negative bacteria belonging to the ATCC collection using the standard microdilution test for the determination of MICs. MICs of the synthesised compounds along with the parent compound TCC and with the standard antibiotic norfloxacin are listed in Table 1. The compounds were also analyzed in terms of molecular mass, logP (Table 1), number of hydrogen-bond donors and number of hydrogen-bond acceptors, and most of them obeyed Lipinski’s rule. […] Based on our results, it seems that the 3,4-dichloro-disubstitution pattern, which is present in TCC, is not crucial for activity. […] Moreover, the activity against Enterococcus faecalis was interesting. E. faecalis is a ubiquitous member of the healthy human gut microbiota and also a common opportunistic pathogen and leading cause of nosocomial infections. It has a high incidence for most infections, and the case numbers have been increasing in recent decades, likely due to its greater ability to persist in healthcare facilities and its higher abundance in the human gut microbiome. Kim et al. (2016) compared the bactericidal effects of plain and antibacterial soap containing 0.3% TCC. The authors found no significative difference between the effects of plain and medicated soap at either temperature, with the only exception of E. faecalis ATCC 19433 at 40 °C.
(§2) MICs (μg/mL) were determined by the broth microdilution method, using 96-well plates, according to CLSI [26]. Stock solutions of the investigated compounds were obtained by setting the concentration at the maximum possible value. Then, the stock solutions were diluted 1:10 with Mueller Hinton Broth (Oxoid, Italy). Afterwards, twofold serial dilutions in the suitable test medium were carried out to obtain a set of concentrations from 512 to 2 µg/mL in the wells. To obtain the stock solution, DMSO (100%) was employed as diluent. The following bacteria strains, available as freeze-dried discs, belonging to the ATCC collection, were used: Gram-positive: S. aureus ATCC 29213, 6538, and 6538P, E. faecalis ATCC 29212; Gram-negative: K. pneuomoniae ATCC 13883, P. aeruginosa ATCC 27853. To conserve the purity of cultures and to enable their reproducibility, cryovials of all microbial strains in the medium were set up and stored at −80 °C. Pre-cultures of each bacterial strain were prepared in Mueller Hinton Broth (MHB) and incubated at 37 °C for 3–5 h. The turbidity of bacterial cell suspension was calibrated to 0.5 McFarland Standard by the spectrophotometric method (OD 625 nm 0.08–0.10), as indicated in the CLSI protocol M7-A9 and, further, the standardized suspension was diluted (1:100) with MHB to reach 1–2 × 10^6 CFU/mL. All wells were seeded with 100 µl of the mentioned final inoculum, and some wells contained only inoculated broth as control growth. […] The MICs were determined by using the assay repeated twice in triplicate. Throughout the study, norfloxacin was used as reference antibiotic. Appropriate controls involved norfloxacin for bacteria as international reference standard. […]

MIC [µg/mL]	Compound
64 (≈ 266 µM)	Cc1cccc(C)c1NC(=O)Nc1ccccc1 [1bf, 1-(2,6-Dimethylphenyl)-3-phenylurea]
128 (≈ 524 µM)	Cc1ccccc1NC(=O)Nc1ccccc1F [1gl, 1-(2-Metylphenyl)-3-(2-fluorophenyl)urea]
64 (≈ 244 µM)	Cc1ccccc1NC(=O)Nc1ccc(F)c(F)c1 [1gj, 1-(3,4-Difluorophenyl)-3-(2-methylphenyl)urea]
128 (≈ 455 µM)	O=C(Nc1ccccc1)Nc1ccc(Cl)c(Cl)c1 [1ef, 1-(3,4-Dichlorophenyl)-3-phenylurea]
128 (≈ 516 µM)	O=C(Nc1ccccc1)Nc1ccc(F)c(F)c1 [1fj, 1-(3,4-Difluorophenyl)-3-phenylurea]

Continued, compound first:

Compound	MIC [µg/mL]
COc1ccc(NC(=O)Nc2ccc(C)cc2)cc1 [1ad, 1-(4-Methoxyphenyl)-3-(p-tolyl)urea]	128 (≈ 499 µM)
COc1ccc(NC(=O)Nc2ccc(Cl)c(Cl)c2)cc1 [1de, 1-(3,4-Dichlorophenyl)-3-(4-methoxyl)phenylurea]	64 (≈ 206 µM)
Cc1ccc(NC(=O)Nc2ccc(Cl)c(Cl)c2)cc1 [1ae, 1-(3,4-Dichlorophenyl)-3-p-tolylurea]	128 (≈ 434 µM)

tested on: E. coli 25922; experiment: MIC by broth microdilution (CLSI); format: cell-based; conditions: Escherichia coli, Gram-negative, 37 °C, 24 h, Mueller Hinton Broth

MIC [µg/mL]	Compound
> 256	Cc1cccc(C)c1NC(=O)Nc1ccccc1 [1bf, 1-(2,6-Dimethylphenyl)-3-phenylurea]
> 256	Cc1ccccc1NC(=O)Nc1ccccc1F [1gl, 1-(2-Metylphenyl)-3-(2-fluorophenyl)urea]
> 256	Cc1ccccc1NC(=O)Nc1ccc(F)c(F)c1 [1gj, 1-(3,4-Difluorophenyl)-3-(2-methylphenyl)urea]
> 256	O=C(Nc1ccccc1)Nc1ccc(Cl)c(Cl)c1 [1ef, 1-(3,4-Dichlorophenyl)-3-phenylurea]

Further lines, the compound ahead of its results:

Compound	MIC [µg/mL]
COc1ccc(NC(=O)Nc2ccc(C)cc2)cc1 [1ad, 1-(4-Methoxyphenyl)-3-(p-tolyl)urea]	> 256
COc1ccc(NC(=O)Nc2ccc(Cl)c(Cl)c2)cc1 [1de, 1-(3,4-Dichlorophenyl)-3-(4-methoxyl)phenylurea]	> 256
Cc1ccc(NC(=O)Nc2ccc(Cl)c(Cl)c2)cc1 [1ae, 1-(3,4-Dichlorophenyl)-3-p-tolylurea]	> 256

tested on: K. pneumoniae ATCC 13883; experiment: MIC by broth microdilution (CLSI); format: cell-based; conditions: Klebsiella pneumoniae, ATCC13883; Gram-negative; 37 °C, 24 h, Mueller Hinton Broth; read-out: MIC K.p. 13883
Description: as §1, §2

MIC [µg/mL]	Compound
> 256	Cc1cccc(C)c1NC(=O)Nc1ccccc1 [1bf, 1-(2,6-Dimethylphenyl)-3-phenylurea]
> 256	Cc1ccccc1NC(=O)Nc1ccccc1F [1gl, 1-(2-Metylphenyl)-3-(2-fluorophenyl)urea]
> 256	Cc1ccccc1NC(=O)Nc1ccc(F)c(F)c1 [1gj, 1-(3,4-Difluorophenyl)-3-(2-methylphenyl)urea]
> 256	O=C(Nc1ccccc1)Nc1ccc(Cl)c(Cl)c1 [1ef, 1-(3,4-Dichlorophenyl)-3-phenylurea]
256 (≈ 1030 µM)	O=C(Nc1ccccc1)Nc1ccc(F)c(F)c1 [1fj, 1-(3,4-Difluorophenyl)-3-phenylurea]

The remaining lines, values behind:

Compound	MIC [µg/mL]
COc1ccc(NC(=O)Nc2ccc(C)cc2)cc1 [1ad, 1-(4-Methoxyphenyl)-3-(p-tolyl)urea]	> 256
COc1ccc(NC(=O)Nc2ccc(Cl)c(Cl)c2)cc1 [1de, 1-(3,4-Dichlorophenyl)-3-(4-methoxyl)phenylurea]	> 256
Cc1ccc(NC(=O)Nc2ccc(Cl)c(Cl)c2)cc1 [1ae, 1-(3,4-Dichlorophenyl)-3-p-tolylurea]	> 256

tested on: P. aeruginosa ATCC 27853; experiment: MIC by broth microdilution (CLSI); format: cell-based; conditions: Pseudomonas aeruginosa, ATCC27853; Gram-negative; 37 °C, 24 h, Mueller Hinton Broth
Description: as §1, §2

MIC [µg/mL]	Compound
> 256	Cc1cccc(C)c1NC(=O)Nc1ccccc1 [1bf, 1-(2,6-Dimethylphenyl)-3-phenylurea]
> 256	Cc1ccccc1NC(=O)Nc1ccccc1F [1gl, 1-(2-Metylphenyl)-3-(2-fluorophenyl)urea]
> 256	Cc1ccccc1NC(=O)Nc1ccc(F)c(F)c1 [1gj, 1-(3,4-Difluorophenyl)-3-(2-methylphenyl)urea]
256 (≈ 911 µM)	O=C(Nc1ccccc1)Nc1ccc(Cl)c(Cl)c1 [1ef, 1-(3,4-Dichlorophenyl)-3-phenylurea]
256 (≈ 1030 µM)	O=C(Nc1ccccc1)Nc1ccc(F)c(F)c1 [1fj, 1-(3,4-Difluorophenyl)-3-phenylurea]

The next lines start with the compound.

Compound	MIC [µg/mL]
COc1ccc(NC(=O)Nc2ccc(C)cc2)cc1 [1ad, 1-(4-Methoxyphenyl)-3-(p-tolyl)urea]	> 256
COc1ccc(NC(=O)Nc2ccc(Cl)c(Cl)c2)cc1 [1de, 1-(3,4-Dichlorophenyl)-3-(4-methoxyl)phenylurea]	> 256
Cc1ccc(NC(=O)Nc2ccc(Cl)c(Cl)c2)cc1 [1ae, 1-(3,4-Dichlorophenyl)-3-p-tolylurea]	> 256

tested on: Staphylococcus aureus; experiment: MIC by broth microdilution, S. aureus (strain not given); format: cell-based; conditions: strain not specified (best value among the ATCC strains), read-out: MIC against S. aureus
Description: as §1, §2

Compound	MIC [µg/mL]
Cc1cccc(C)c1NC(=O)Nc1ccccc1 [1bf, 1-(2,6-Dimethylphenyl)-3-phenylurea]	16 (≈ 66.6 µM)
Cc1ccccc1NC(=O)Nc1ccccc1F [1gl, 1-(2-Metylphenyl)-3-(2-fluorophenyl)urea]	32 (≈ 131 µM)
COc1ccc(NC(=O)Nc2ccc(C)cc2)cc1 [1ad, 1-(4-Methoxyphenyl)-3-(p-tolyl)urea]	32 (≈ 125 µM)
O=C(Nc1ccccc1)Nc1ccc(Cl)c(Cl)c1 [1ef, 1-(3,4-Dichlorophenyl)-3-phenylurea]	16 (≈ 56.9 µM)

tested on: S. aureus ATCC 29213; experiment: MIC by broth microdilution (CLSI); format: cell-based, Staphylococcus aureus; conditions: Staphylococcus aureus, ATCC29213; Gram-positive; 37 °C, 24 h, Mueller Hinton Broth
Description: as §1, §2

MIC [µg/mL]	Compound
> 256	Cc1cccc(C)c1NC(=O)Nc1ccccc1 [1bf, 1-(2,6-Dimethylphenyl)-3-phenylurea]
128 (≈ 524 µM)	Cc1ccccc1NC(=O)Nc1ccccc1F [1gl, 1-(2-Metylphenyl)-3-(2-fluorophenyl)urea]
> 256	Cc1ccccc1NC(=O)Nc1ccc(F)c(F)c1 [1gj, 1-(3,4-Difluorophenyl)-3-(2-methylphenyl)urea]
256 (≈ 911 µM)	O=C(Nc1ccccc1)Nc1ccc(Cl)c(Cl)c1 [1ef, 1-(3,4-Dichlorophenyl)-3-phenylurea]
256 (≈ 1030 µM)	O=C(Nc1ccccc1)Nc1ccc(F)c(F)c1 [1fj, 1-(3,4-Difluorophenyl)-3-phenylurea]

The next lines start with the compound.

Compound	MIC [µg/mL]
COc1ccc(NC(=O)Nc2ccc(C)cc2)cc1 [1ad, 1-(4-Methoxyphenyl)-3-(p-tolyl)urea]	128 (≈ 499 µM)
COc1ccc(NC(=O)Nc2ccc(Cl)c(Cl)c2)cc1 [1de, 1-(3,4-Dichlorophenyl)-3-(4-methoxyl)phenylurea]	128 (≈ 411 µM)
Cc1ccc(NC(=O)Nc2ccc(Cl)c(Cl)c2)cc1 [1ae, 1-(3,4-Dichlorophenyl)-3-p-tolylurea]	128 (≈ 434 µM)

tested on: S. aureus ATCC 6538; experiment: MIC by broth microdilution (CLSI); format: cell-based, Staphylococcus aureus; conditions: Staphylococcus aureus, ATCC6538; Gram-positive; 37 °C, 24 h, Mueller Hinton Broth
Description: as §1, §2

MIC [µg/mL]	Compound
16 (≈ 66.6 µM)	Cc1cccc(C)c1NC(=O)Nc1ccccc1 [1bf, 1-(2,6-Dimethylphenyl)-3-phenylurea]
64 (≈ 262 µM)	Cc1ccccc1NC(=O)Nc1ccccc1F [1gl, 1-(2-Metylphenyl)-3-(2-fluorophenyl)urea]
64 (≈ 244 µM)	Cc1ccccc1NC(=O)Nc1ccc(F)c(F)c1 [1gj, 1-(3,4-Difluorophenyl)-3-(2-methylphenyl)urea]
16 (≈ 56.9 µM)	O=C(Nc1ccccc1)Nc1ccc(Cl)c(Cl)c1 [1ef, 1-(3,4-Dichlorophenyl)-3-phenylurea]
128 (≈ 516 µM)	O=C(Nc1ccccc1)Nc1ccc(F)c(F)c1 [1fj, 1-(3,4-Difluorophenyl)-3-phenylurea]

The next lines start with the compound.

Compound	MIC [µg/mL]
COc1ccc(NC(=O)Nc2ccc(C)cc2)cc1 [1ad, 1-(4-Methoxyphenyl)-3-(p-tolyl)urea]	32 (≈ 125 µM)
COc1ccc(NC(=O)Nc2ccc(Cl)c(Cl)c2)cc1 [1de, 1-(3,4-Dichlorophenyl)-3-(4-methoxyl)phenylurea]	64 (≈ 206 µM)
Cc1ccc(NC(=O)Nc2ccc(Cl)c(Cl)c2)cc1 [1ae, 1-(3,4-Dichlorophenyl)-3-p-tolylurea]	64 (≈ 217 µM)

tested on: S. aureus ATCC 6538P; experiment: MIC by broth microdilution (CLSI); format: cell-based, Staphylococcus aureus; conditions: Staphylococcus aureus, ATCC6538P; Gram-positive; 37 °C, 24 h, Mueller Hinton Broth
Description: as §1, §2

MIC [µg/mL]	Compound
16 (≈ 66.6 µM)	Cc1cccc(C)c1NC(=O)Nc1ccccc1 [1bf, 1-(2,6-Dimethylphenyl)-3-phenylurea]
32 (≈ 131 µM)	Cc1ccccc1NC(=O)Nc1ccccc1F [1gl, 1-(2-Metylphenyl)-3-(2-fluorophenyl)urea]
128 (≈ 488 µM)	Cc1ccccc1NC(=O)Nc1ccc(F)c(F)c1 [1gj, 1-(3,4-Difluorophenyl)-3-(2-methylphenyl)urea]
128 (≈ 455 µM)	O=C(Nc1ccccc1)Nc1ccc(Cl)c(Cl)c1 [1ef, 1-(3,4-Dichlorophenyl)-3-phenylurea]
64 (≈ 258 µM)	O=C(Nc1ccccc1)Nc1ccc(F)c(F)c1 [1fj, 1-(3,4-Difluorophenyl)-3-phenylurea]

More lines, now with the values behind:

Compound	MIC [µg/mL]
COc1ccc(NC(=O)Nc2ccc(C)cc2)cc1 [1ad, 1-(4-Methoxyphenyl)-3-(p-tolyl)urea]	32 (≈ 125 µM)
COc1ccc(NC(=O)Nc2ccc(Cl)c(Cl)c2)cc1 [1de, 1-(3,4-Dichlorophenyl)-3-(4-methoxyl)phenylurea]	64 (≈ 206 µM)
Cc1ccc(NC(=O)Nc2ccc(Cl)c(Cl)c2)cc1 [1ae, 1-(3,4-Dichlorophenyl)-3-p-tolylurea]	64 (≈ 217 µM)

Source: article PMC7922224, “Searching for Small Molecules as Antibacterials: Non-Cytotoxic Diarylureas Analogues of Triclocarban” (Antibiotics, 2021)
